From patent US9457033B2, “Steroid alkaloids and uses thereof as antimicrobial agents against electron transport-deficient microbes and as potentiators for antimicrobial agents against pathogenic bacteria” (priority 2011, dated 2016)

Experiments:
[1] = test system: Clostridium perfringens ATCC 13124; assay: microbe, parasite or virus in culture; format: cell-based; conditions: ATCC13124, 48 h, read-out: Diameter of inhibition zone
normal CF07-L strain = assay: Time-kill experiment (FIG. 1B); format: cell-based, Staphylococcus aureus; conditions: tomatidine 16 μg/ml
Method: (225 RPM), bacteria were sampled, serially diluted and plated on tryptic soy agar (TSA) for colony-forming unit (CFU) determinations (i.e., viable bacterial counts). Plates were incubated for 24 or 48 h at 35° C. for normal and SCV strains, respectively. The antibacterial activities of tomatidine and control antibiotics (erythromycin (a bacteriostatic macrolide) and ciprofloxacin (a bactericidal fluoroquinolone) against the normal CF07-L strain and the SCV CF07-S as a function of time are presented in FIGS. 1B and 1C, respectively. The antibacterial activity of tomatine against the SCV strain was also evaluated (TN in FIG. 1C).

## C[C@H]1CC[C@]2(NC1)O[C@H]1C[C@H]3[C@@H]4CC[C@H]5C[C@@H](O)CC[C@]5(C)[C@H]4CC[C@]3(C)[C@H]1[C@@H]2C [Tomatidine, tomatidine]
[1]
  zone of inhibition at 50 µg/disc: 11 mm
Normal CF07-L strain
  time-kill effect on growth: does not affect the growth
